Values belong to the molecule of their own block, whether it stands above or below them. *1 amine or outer side, *2 acyl side, *3 side chain or, on linkers, in order; H or OH if unused. Where a SMILES comes first, the peptide text is derived from it. Bridges are numbered along the chain shown (N, C = ends). Roman numbers before positions name the chains, in order. [ ]: non-standard residue; d: D form. Diglycolyl = O=C(COCC(=O)[*:2])[*:1]; NMeR = CN[C@@H](CCCNC(=N)N)C(=O)O; β3hE = N[C@@H](CCC(=O)O)CC(=O)O; X1 = O=C(c1ccccc1C[*:2])[*:1]; Pen = CC(C)(S)[C@H](N)C(=O)O
What was measured:
[1] = Simulated Gastric Fluid (SGF) Stability Assay; format: in vitro ADME; conditions: pH 2, 37° C.; for half-life: simulated gi fluid, porcine pepsin
Procedure: Simulated Gastric Fluid (SGF) Stability Assays
Studies were carried out in simulated gastric fluid (SGF) to evaluate intestinal stability of the peptide molecules of the instant invention. SGF was prepared by adding 20 mg NaCl, 32 mg porcine pepsin (MP Biochemicals, catalog 02102599), and 70 μl HCl to 10 ml water (final pH=2). Aliquots of SGF (0.5 ml each) were pre-warmed at 37° C. To start the reaction, 1 μl of peptide stock solution (10 mM in DMSO) was added to 0.5 ml SGF and thoroughly mixed such that the final peptide concentration was 20 μM. The reactions were incubated at 37° C. with gentle shaking. At each time point (0, 15, 30, 60 min) 50 μl aliquots were removed and added to 200 μl acetonitrile containing 0.1% formic acid to quench the reaction. Samples are stored at 4° C. until the end of the experiment and centrifuged at 10,000 rpm for 5 minutes. Aliquots of the supernatant were removed, diluted 1:1 into distilled water containing internal standard, and analyzed by LCMS/MS. Percent remaining at each timepoint was calculated based on the peak area response ratio of test to compound to internal standard. Time 0 was set to 100%, and all later timepoints were calculated relative to time 0. Half-lives were calculated by fitting to a first-order exponential decay equation using GraphPad.

[2] = Simulated Intestinal Fluid (SIF) Stability Assay; format: in vitro ADME; conditions: 37° C.; for half-life: simulated gi fluid, porcine pancreatin
Procedure, shortened: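 Percent peptide remaining over time was measured by LC-MS/MS as the peak-area ratio to internal standard, and a first-order decay fit gave half-life. Digests contained 22 μM peptide and 1% pancreatin in pH 6.5 FaSSIF buffer at 37° C. Aliquots were quenched in organic solvent with formic acid.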

half-life at 20 μM ([1]; pig, simulated gastric fluid (SGF) with porcine pepsin, dimers, Table 7): > 1 h
half-life at 22 μM ([2]; pig, simulated intestinal fluid (SIF) with 1% porcine pancreatin, pH 6.5, porcine pancreatin, dimers, Table 7): > 3 h
Compound: CC(C)C[C@@H]1NC(=O)[C@H]([C@@H](C)O)NC(=O)[C@H](CC(=O)O)NC(=O)[C@H](CO)NC(=O)[C@H](CCCNC(=N)N)N(C)C(=O)c2ccccc2CSC(C)(C)[C@@H](C(=O)N[C@@H](Cc2ccc(O)cc2)C(=O)N[C@@H](CCC(=O)O)CC(=O)N[C@H](CCCCNC(=O)COCC(=O)NCCCC[C@@H](NC(=O)C[C@H](CCC(=O)O)NC(=O)[C@H](Cc2ccc(O)cc2)NC(=O)[C@H]2NC(=O)[C@H](CC(C)C)NC(=O)[C@H]([C@@H](C)O)NC(=O)[C@H](CC(=O)O)NC(=O)[C@H](CO)NC(=O)[C@H](CCCNC(=N)N)N(C)C(=O)c3ccccc3CSC2(C)C)C(N)=O)C(N)=O)NC1=O [compound 165] (I: [NMeR]SDTL[Pen]Y[β3hE][dK]-NH2 / II: [NMeR]SDTL[Pen]Y[β3hE][dK]-NH2; linker I:9-II:9 via Diglycolyl; linker I:N-I:6, II:N-II:6 via X1)

Compound: CC(C)C[C@@H]1NC(=O)[C@H]([C@@H](C)O)NC(=O)[C@H](CC(=O)O)NC(=O)[C@H](CO)NC(=O)[C@H](CCCNC(=N)N)N(C)C(=O)c2ccccc2CSC(C)(C)[C@@H](C(=O)N[C@@H](Cc2c[nH]c3ccccc23)C(=O)N[C@H](CCC(=O)O)C(N)=O)NC1=O [compound 97] (HELM PEPTIDE1{[meR].S.D.T.L.[Pen].W.[dE].[am]}|CHEM1{[O=C(c1ccccc1C[*:2])[*:1]]}$PEPTIDE1,CHEM1,1:R1-1:R1|PEPTIDE1,CHEM1,6:R3-1:R2$$$V2.0)
half-life ([1]; monomers, Table 6): > 3 h
half-life ([2]; monomers, Table 6): > 3 h

half-life ([1]; dimers, Table 7): > 3 h
half-life ([2]; dimers, Table 7): > 3 h
Compound: CC(C)C[C@@H]1NC(=O)[C@H]([C@@H](C)O)NC(=O)[C@H](CC(=O)O)NC(=O)[C@H](CO)NC(=O)[C@H](CCCNC(=N)N)N(C)C(=O)c2ccccc2CSC(C)(C)[C@@H](C(=O)N[C@@H](Cc2c[nH]c3ccccc23)C(=O)N[C@H](CCC(=O)O)C(=O)N[C@H](CCCCN)C(N)=O)NC1=O [compound 150] (HELM PEPTIDE1{[meR].S.D.T.L.[Pen].W.[dE].[dK].[am]}|CHEM1{[O=C(c1ccccc1C[*:2])[*:1]]}$PEPTIDE1,CHEM1,1:R1-1:R1|PEPTIDE1,CHEM1,6:R3-1:R2$$$V2.0)

Reference: patent US20260217767A1, “NOVEL A4B7 THIOETHER PEPTIDE DIMER ANTAGONISTS” (Protagonist Therapeutics, Inc., priority 2014, published 2026)
